Patent publication US20210386367A1, “DEVICES AND SYSTEMS FOR GASTROINTESTINAL MICROBIOME DETECTION AND MANIPULATION” (Progenity, Inc., priority 2018, published 2021)
In brackets after ≈: the same amount, converted by molar mass. Like-named read-outs stand apart in the source and are kept apart here.

Tests used:
Bacteroides fragilis = experiment: Agar dilution MIC, 30 clinical isolates; format: cell-based; details: for Mode: modal MIC
[1] = tested on: Streptococcus spp. spontaneous mutants; details: S. pneumoniae ATCC 49619; CLSI QC range shown in parentheses; cited from earlier work
B. fragilis ATCC 25285 = experiment: Broth microdilution MIC (time-kill study); format: cell-based, Bacteroides fragilis
S. pyogenes ATCC 49399 [2] = experiment: Broth microdilution MIC (time-kill study); format: cell-based, Streptococcus pyogenes
E. coli MMX 1312 = experiment: Broth microdilution MIC (time-kill study); format: cell-based, Escherichia coli
S. agalactiae ATCC 13813 [3] = experiment: Broth microdilution MIC (time-kill study); format: cell-based, Streptococcus agalactiae
B. vulgatus ATCC 8482 = experiment: Broth microdilution MIC (time-kill study); format: cell-based, Bacteroides vulgatus
S. pyogenes ATCC 49399 [4] = experiment: Time-kill assay; format: cell-based, Streptococcus pyogenes; details: 2×, 4×, 8× MIC; 2, 6, 24 hr
[5] = tested on: three isolates each of E. coli, Streptococcus spp. and Bacteroides spp.; experiment: Time-kill assay, overall summary; format: cell-based
Method: MIC values were determined by broth microdilution in accordance with guidelines from the Clinical and Laboratory Standards Institute (CLSI; (1) “Methods for Dilution Antimicrobial Susceptibility Tests for Bacteria That Grow Aerobically; Approved Standard; 11th ed.,” CLSI standard M07, 2018; (2) “Performance Standards for Antimicrobial Susceptibility Testing; 28th ed.,” CLSI supplement M100, 2018).
During the time-kill study, the test flasks were sampled at 2, 6, and 24 hr for determination of viable counts using the track dilution method as described above. Bacteroides was also sampled at 48 hr. All E. coli plates were incubated for 20-24 hr at 35° C., Streptococci for 20-24 hr at 35° C. in a CO2 incubator, and Bacteroides for approximately 48 hr at 35° C. in the anaerobe chamber. Colonies were counted manually, and the CFU/mL was determined from the average count of the duplicate plates, followed by the calculation of the log10 CFU/mL. The limit of detection for the assay was 50 CFU/mL.

[6] = tested on: Streptococcus spp. (S. pneumoniae ATCC 49619, S. pyogenes ATCC 49399, S. agalactiae ATCC 13813); experiment: Agar dilution MIC (spontaneous mutation study; strain in conditions); format: cell-based
S. agalactiae ATCC 13813 [7] = experiment: Time-kill assay; format: cell-based, Streptococcus agalactiae; details: 2×, 4×, 8× MIC; 2, 6, 24 hr
[8] = tested on: E. coli spontaneous mutants; experiment: Broth microdilution MIC of spontaneous mutants; format: cell-based, Escherichia coli
Method: Select isolates were subcultured onto agar containing drug at the selection concentration, were identified by MALDI, and were frozen for broth microdilution MIC testing as described below.
To determine whether colonies growing on drug selection plates had elevated MIC values to the selecting antibiotic, susceptibility testing by broth microdilution was conducted on isolated mutants following methodology recommended by CLSI (1), (2), and (3) “Performance Standards for Antimicrobial Susceptibility Testing; Twenty-Eighth Informational Supplement.,” CLSI document M100-S28, 2018.
All wells in columns 2 through 12 of a standard 96-well microdilution plate (Costar 3795) were filled with 150 μL of the appropriate diluent. Then, 300 μL of the test agents were added to the wells of column 1 of the plates at […] the highest final concentration to be tested. Serial two-fold dilutions were made across the rows through column 11 using the Biomek 2000. The wells of column 12 contained no drug and served as the growth control wells. This plate served as the “mother plate” from which selected MIC assay plates or “daughter plates” were made.
2 μL of drug solution from each well of a mother plate was added to each corresponding well of the daughter plate in a single step. A standardized inoculum of each aerobic test organism was prepared per CLSI methods to equal a 0.5 McFarland standard, followed by a dilution of 1:20 in MHB II. The plates were then inoculated with 10 μL of the diluted inoculum using the Biomek 2000 from low to high drug concentration, resulting in a final concentration of approximately 5×10^5 CFU/mL. An un-inoculated plate was incubated for the purpose of assessing solubility of the drug in the test media.
The plates for the aerobic tests were stacked 3-4 high, covered with a sterile lid on the top plate, and incubated aerobically at 35° C. for 18-20 hr. The MIC was recorded as the lowest concentration of drug that inhibited visible growth of the organism.

S. pneumoniae ATCC 49619 = experiment: Time-kill assay; format: cell-based, Streptococcus pneumoniae
E. coli ATCC 35218 = experiment: Time-kill assay; format: cell-based, Escherichia coli; details: 2×, 4×, 8× MIC; 2, 6, 24 hr
[9] = 30 Bacteroides fragilis clinical isolates
[10] = S. agalacttae ATCC 13813 (so in the source)

Cc1ncc([N+](=O)[O-])n1CCO [MTZ]
% S (Bacteroides fragilis; [9]): 100%
MIC50 (Bacteroides fragilis; [9]): 1 µg/mL (≈ 5.84 µM)
MIC90 (Bacteroides fragilis; [9]): 2 µg/mL (≈ 11.7 µM)
MIC range (Bacteroides fragilis; [9]): 0.25 to 2 µg/mL
Mode (Bacteroides fragilis; [9]): 1 µg/mL

Penicillin
MIC, CLSI QC range [1]: (0.06-0.25) μg/mL

piperacillin/tazobactam [piperacillin-tazobactam]
MIC (B. fragilis ATCC 25285; B. fragilis MMX 123 ATCC 25285): 8 µg/mL
MIC (S. pyogenes ATCC 49399 [2]; S. pyogenes ATCC 49399): 0.06 µg/mL
MIC (E. coli MMX 1312; E. coli MMX 1312): 16/4
MIC (S. agalactiae ATCC 13813 [3]; [10]): 0.06 µg/mL
MIC (B. vulgatus ATCC 8482; B. vulgatus ATCC 8482): 4 µg/mL

CO[C@H]1/C=C/O[C@@]2(C)Oc3c(C)c(O)c4c(O)c(c5c(nc6cc(C)ccn65)c4c3C2=O)NC(=O)/C(C)=C\C=C\[C@H](C)[C@H](O)[C@@H](C)[C@@H](O)[C@@H](C)[C@H](OC(C)=O)[C@@H]1C [rifaximin]
MIC (B. fragilis ATCC 25285; B. fragilis MMX 123 ATCC 25285): 0.5 µg/mL (≈ 0.636 µM)
MIC (B. fragilis ATCC 25285; broth microdilution): 0.05 µg/mL (≈ 0.0636 µM)
time-kill kinetics outcome (bactericidal = ≥3 log reduction in CFU per mL) (S. pyogenes ATCC 49399 [4]): bacteriostatic effect against this organism at 2×, 4×, and 8× the MIC
overall time-kill outcome [5]: bacteriostatic activity and regrowth was typically observed
MIC50 (Bacteroides fragilis): 0.25 µg/mL (≈ 0.318 µM)
MIC90 (Bacteroides fragilis): 0.25 µg/mL (≈ 0.318 µM)
relative activity among drugs tested (Bacteroides fragilis): meropenem and rifaximin had similar activity
MIC50 (Bacteroides fragilis; [9]): 0.25 µg/mL (≈ 0.318 µM)
MIC90 (Bacteroides fragilis; [9]): 0.25 µg/mL (≈ 0.318 µM)
Mode (Bacteroides fragilis; [9]): 0.25 µg/mL
MIC (S. pyogenes ATCC 49399 [2]; S. pyogenes ATCC 49399): 0.12 µg/mL (≈ 0.153 µM)
MIC (S. pyogenes ATCC 49399 [2]; broth microdilution): 0.12 µg/mL (≈ 0.153 µM)
Agar MIC ([6]; S. agalactiae ATCC 13813): 0.25 µg/mL
Agar MIC ([6]; S. pneumoniae ATCC 49619): 0.03 µg/mL
Agar MIC ([6]; S. pyogenes ATCC 49399): 0.12 µg/mL
MIC values (agar dilution) ([6]; over evaluated Streptococcus spp. (range stated jointly with other groups)): 0.03 to 0.5 µg/mL
time-kill kinetics outcome (bactericidal = ≥3 log reduction in CFU per mL) (S. agalactiae ATCC 13813 [7]): bacteriostatic effect at 4× and 8× the MIC
MIC ([8]; E. coli MMX 1312, selected on ceftriaxone 4X MIC, Colony A): 3 µg/mL
MIC ([8]; E. coli MMX 1312, selected on ceftriaxone 4X MIC, Colony B): 8 µg/mL
MIC ([8]; E. coli MMX 1312, selected on ceftriaxone 4X MIC, Colony C): 8 µg/mL
MIC ([8]; E. coli MMX 1312, selected on ceftriaxone 8X MIC, Colony A): 3 µg/mL
MIC ([8]; E. coli MMX 1312, selected on ceftriaxone 8X MIC, Colony B): 3 µg/mL
MIC ([8]; E. coli MMX 1312, selected on ceftriaxone 8X MIC, Colony C): 3 µg/mL
MIC ([8]; E. coli MMX 1312 Parent): 8 µg/mL
MIC ([8]; E. coli MMX 1312 Parent (Table 49)): 8 µg/mL
MIC ([8]; E. coli MMX 1312 mutant selected on meropenem 4X MIC, colony A): 8 µg/mL
MIC ([8]; E. coli MMX 1312 mutant selected on meropenem 4X MIC, colony B): 8 µg/mL
MIC ([8]; E. coli MMX 1312 mutant selected on meropenem 4X MIC, colony C): 8 µg/mL
MIC ([8]; E. coli MMX 1312 mutant selected on meropenem 8X MIC, colony A): 8 µg/mL
MIC ([8]; E. coli MMX 1312 mutant selected on meropenem 8X MIC, colony B): 8 µg/mL
MIC ([8]; E. coli MMX 1312 mutant selected on meropenem 8X MIC, colony C): 4 µg/mL
broth microdilution MIC of selected colonies relative to parent strain ([8]; colonies selected at 4× and 8× the MIC): several-fold higher
MIC (E. coli MMX 1312; E. coli MMX 1312): 8 µg/mL (≈ 10.2 µM)
MIC (E. coli MMX 1312; broth microdilution): 8 µg/mL (≈ 10.2 µM)
MIC (S. agalactiae ATCC 13813 [3]; [10]): 0.25 µg/mL (≈ 0.318 µM)
MIC (S. agalactiae ATCC 13813 [3]; broth microdilution): 0.25 µg/mL (≈ 0.318 µM)
time-kill kinetics outcome (bactericidal = ≥3 log reduction in CFU per mL) (S. pneumoniae ATCC 49619; 2×, 4×, 8× MIC, 2, 6, 24 hr): rebounded to no-drug control levels at 24 hr
CFU decrease (S. pneumoniae ATCC 49619; all three concentrations, 6 hr timepoint): approximately 2.3 log10 CFU
time-kill kinetics outcome (bactericidal = ≥3 log reduction in CFU per mL) (E. coli ATCC 35218): bacteriostatic at 8× the MIC with regrowth at 24 hr for both 2× and 4× the MIC
MIC (B. vulgatus ATCC 8482; B. vulgatus ATCC 8482): 0.25 µg/mL (≈ 0.318 µM)
MIC (B. vulgatus ATCC 8482; broth microdilution): 0.25 µg/mL (≈ 0.318 µM)

CN[C@H](CC(C)C)C(=O)N[C@H]1C(=O)N[C@@H](CC(N)=O)C(=O)N[C@H]2C(=O)N[C@H]3C(=O)N[C@H](C(=O)N[C@H](C(=O)O)c4cc(O)cc(O)c4-c4cc3ccc4O)[C@H](O)c3ccc(c(Cl)c3)Oc3cc2cc(c3O[C@@H]2O[C@H](CO)[C@@H](O)[C@H](O)[C@H]2O[C@H]2C[C@](C)(N)[C@H](O)[C@H](C)O2)Oc2ccc(cc2Cl)[C@H]1O [vancomycin, Vancomycin]
MIC (B. fragilis ATCC 25285; Bacteroides fragilis, ATCC25285, B. fragilis MMX 123 ATCC 25285, read-out: MIC): > 16 µg/mL
MIC (S. pyogenes ATCC 49399 [2]; Streptococcus pyogenes, ATCC49399, S. pyogenes ATCC 49399, read-out: MIC): 0.25 µg/mL (≈ 0.173 µM)
MIC (E. coli MMX 1312; Escherichia coli, MMX1312, E. coli MMX 1312, read-out: MIC): > 16 µg/mL
MIC (S. agalactiae ATCC 13813 [3]; Streptococcus agalactiae, ATCC13813, S. agalacttae ATCC 13813 (so in the source), read-out: MIC): 0.5 µg/mL (≈ 0.345 µM)
MIC (B. vulgatus ATCC 8482; Phocaeicola vulgatus, ATCC8482, B. vulgatus ATCC 8482, read-out: MIC): > 16 µg/mL
